Assay results: publication PMC8147293, “Library of Selenocyanate and Diselenide Derivatives as In Vivo Antichagasic Compounds Targeting Trypanosoma cruzi Mitochondrion” (Pharmaceuticals, 2021)
Read-outs that look alike come from different tables or passages of the source.

Columns and labels:
Mammalian Vero cells = assay: Cytotoxicity test on Vero cells (resazurin); assay type: cell-based; conditions: Chlorocebus sabaeus; for IC50: Table S1, cultured Vero cells, read-out: Toxicity IC50 Vero cell; for CC50: 72 h, Table 1, Vero cells, 48 h + 24 h resazurin, read-out: Toxicity IC50 Vero Cell
Experimental: Mammalian Vero cells (EACC No. 84113001), cultured as previously reported, were used to determine the cytotoxicity of the tested compounds [56]. In short, 1.25 × 10^4 Vero cells·mL^−1 were treated by adding the compounds at a concentration range from 400 to 1 µM in 96-well microplates (200 µL·well^−1) at 37 °C for 48 h. Subsequently, resazurin sodium salt (Sigma-Aldrich) was added to be incubated for further 24 h. Finally, cell viability was determined following the same procedure as described to assess the trypanocidal activity in the epimastigotes. Each compound concentration was tested in triplicate in three independent experiments.

[1] = tested on: epimastigotes of T. cruzi Arequipa strain; assay: Screening against extracellular epimastigotes (resazurin); assay type: cell-based, Trypanosoma cruzi; conditions: for IC50: Trypanosoma cruzi; for Selectivity Index Epimast.: IC50 Vero cells/IC50 epimastigotes
Experimental: Trypanocidal activity against epimastigotes of T. cruzi Arequipa strain (MHOM/Pe/2011/Arequipa, discrete typing unit V) was tested as previously described. In short, 5 × 10^5 epimastigotes·mL^−1 were treated by adding the tested compounds at a concentration range from 100 to 0.2 µM in 96-well microplates (200 µL·well^−1) for 48 h. Subsequently, resazurin sodium salt (Sigma-Aldrich) was added to be incubated for further 24 h. Finally, the absorbance was measured, and the trypanocidal activity was expressed as the IC50 (inhibitory concentration 50) using GraphPad Prism 6 software. Each compound concentration was tested in triplicate in three independent experiments.

[2] = tested on: Trypanosoma cruzi intracellular amastigotes; assay: Screening against intracellular amastigotes in Vero cells (Giemsa counting); assay type: cell-based; conditions: for Selectivity Index Amast.: IC50 Vero cells/IC50 amastigotes; for IC50: Trypanosoma cruzi, Table 1, intracellular amastigotes in Vero cells, 72 h, read-out: Activity IC50 Amast.
Experimental: Trypanocidal activity against amastigotes was determined according to the literature reported previously. […]. […] Each compound concentration was tested in triplicate in four separate determinations.

[3] = tested on: Trypanosoma cruzi bloodstream trypomastigotes (BTs); assay: Screening against bloodstream trypomastigotes (resazurin); assay type: cell-based; conditions: for Selectivity Index Trypomast.: IC50 Vero cells/IC50 trypomastigotes; for IC50: Trypanosoma cruzi, Table 1, bloodstream trypomastigotes, 24 h treatment + 4 h resazurin, read-out: Activity IC50 Trypomast.
Experimental: 2 × 10^6 Bloodstream trypomastigotes (BTs), obtained by cardiac puncture from infected BALB/c mice as previously described, were treated by adding the tested compounds at a concentration range from 50 to 0.1 µM in 96-well microplates (200 µL·well^−1) at 37 °C. After 24 h of treatment, resazurin sodium salt (Sigma-Aldrich) was added to be incubated for further 4 h. Finally, trypanocidal activity was determined following the same procedure as described to assess the trypanocidal activity in the epimastigotes. Each compound concentration was tested in triplicate in three independent experiments.

[4] = Table S1, cultured epimastigote form of T. cruzi, read-out: Activity IC50
[5] = 72 h, Table 1, T. cruzi epimastigotes, 48 h treatment + 24 h resazurin, read-out: Activity IC50 Epimast.
[6] = Table 1, T. cruzi epimastigotes, 48 h treatment + 24 h resazurin, read-out: Activity IC50 Epimast.

SMILES	IC50 (Mammalian Vero cells) [µM]	IC50 [1, 4] [µM]	other results
N#C[Se]Cc1nc2ccccc2nc1C[Se]C#N [compound 29]	67.4 ± 3.5	32.1 ± 1.1	
N#C[Se]Cc1ccc2ccccc2n1 [compound 27]	68.3 ± 6.7	99.5 ± 6.1	
N#C[Se]Cc1ccc(C#N)cc1 [compound 13]	12.8 ± 0.7	1.9 ± 0.7	
N#C[Se]Cc1cccc2cccnc12 [compound 25]	12.6 ± 0.3	10.3 ± 0.8	
N#C[Se]Cc1cccc([N+](=O)[O-])c1 [compound 17]	81.2 ± 4.8	37.4 ± 2.6	
O=S(=O)(Nc1ccc([Se][Se]c2ccc(NS(=O)(=O)c3ccc(F)cc3)cc2)cc1)c1ccc(F)cc1 [compound 36]	70.8 ± 4.8	11.1 ± 0.8	
COc1cc2oc(=O)cc(C[Se]C#N)c2cc1OC [compound 30]	109 ± 10.5	30.9 ± 1.4	
N#C[Se]Cc1ccccc1C#N [compound 19]	18.5 ± 0.7	29.1 ± 3	
N#Cc1ccc(S(=O)(=O)Nc2ccc([Se][Se]c3ccc(NS(=O)(=O)c4ccc(C#N)cc4)cc3)cc2)cc1 [compound 40]	16 ± 1.7	3.8 ± 0.1	
O=S(=O)(Nc1ccc([Se][Se]c2ccc(NS(=O)(=O)c3ccc(-c4ccccc4)cc3)cc2)cc1)c1ccc(-c2ccccc2)cc1 [compound 46]		≤ 10	Selectivity Index Amast. [2]: 21; IC50 [2]: 2.3 ± 0.1 µM; Selectivity Index Trypomast. [3]: 24; IC50 ([3]; 28 h): 2 ± 0.3 µM; CC50 (Mammalian Vero cells): 48.6 ± 3.5 µM; Selectivity Index Epimast. [1]: 18; IC50 [1, 5]: 2.7 ± 0.8 µM
O=S(=O)(Nc1ccc([Se][Se]c2ccc(NS(=O)(=O)c3ccc(C(F)(F)F)cc3)cc2)cc1)c1ccc(C(F)(F)F)cc1 [compound 42]	36 ± 2.3	5.9 ± 0.4	
N#C[Se]Cc1cc2c(cc1Br)OCO2 [compound 23]	38.9 ± 2.1	14.1 ± 0.9	
N#C[Se]CC(=O)C12CC3CC(CC(C3)C1)C2 [compound 31]	85.5 ± 4.9	13.2 ± 0.8	
N#Cc1ccccc1C[Se][Se]Cc1ccccc1C#N [compound 20]		≤ 10	Selectivity Index Amast. [2]: 16; IC50 [2]: 1 ± 0.1 µM; Selectivity Index Trypomast. [3]: 18; IC50 ([3]; 28 h): 0.9 µM; CC50 (Mammalian Vero cells): 16.4 ± 0.5 µM; Selectivity Index Epimast. [1]: 13; IC50 [1, 5]: 1.3 ± 0.2 µM
O=S(=O)(Nc1ccc([Se][Se]c2ccc(NS(=O)(=O)c3ccccc3Cl)cc2)cc1)c1ccccc1Cl [compound 35]	69 ± 5.3	28.4 ± 1.7	
O=S(=O)(Nc1ccc([Se][Se]c2ccc(NS(=O)(=O)c3ccc(Cl)cc3)cc2)cc1)c1ccc(Cl)cc1 [compound 34]	29.8 ± 3.4	41.3 ± 2.1	
N#C[Se]Cc1cccc(C#N)c1 [compound 21]		≤ 10	Selectivity Index Amast. [2]: 27; IC50 [2]: 0.8 ± 0.1 µM; Selectivity Index Trypomast. [3]: 24; IC50 [3]: 0.9 ± 0.1 µM; CC50 (Mammalian Vero cells): 21.7 ± 1.8 µM; Selectivity Index Epimast. [1]: 22; IC50 [1, 6]: 1 ± 0.2 µM
Cc1ccc(S(=O)(=O)Nc2ccc([Se][Se]c3ccc(NS(=O)(=O)c4ccc(C)cc4)cc3)cc2)cc1 [compound 43]		≤ 10	Selectivity Index Amast. [2]: 16; IC50 [2]: 4.2 ± 0.7 µM; Selectivity Index Trypomast. [3]: 18; IC50 [3]: 3.7 ± 0.2 µM; CC50 (Mammalian Vero cells): 66.9 ± 6.2 µM; Selectivity Index Epimast. [1]: 13; IC50 [1, 6]: 5.1 ± 0.6 µM
O=S(=O)(Nc1ccc([Se][Se]c2ccc(NS(=O)(=O)c3ccccc3F)cc2)cc1)c1ccccc1F [compound 37]	39.6 ± 3.1	46.1 ± 3.1	
O=[N+]([O-])c1cccc(C[Se][Se]Cc2cccc([N+](=O)[O-])c2)c1 [compound 18]	7.3 ± 1.1	1.5 ± 0.3	
N#C[Se]Cc1ccc([N+](=O)[O-])cc1 [compound 5]	28.6 ± 2.4	21.8 ± 2.2	
N#Cc1ccc(C[Se][Se]Cc2ccc(C#N)cc2)cc1 [compound 14]	8.9 ± 1.5	27.9 ± 2.9	

SMILES	IC50 (Mammalian Vero cells) [µM]	IC50 [1, 4] [µM]	other results
N#C[Se]Cc1ccc(Br)cc1 [compound 1]	68.4 ± 3.7	39.1 ± 2.5	
Brc1cc2c(cc1C[Se][Se]Cc1cc3c(cc1Br)OCO3)OCO2 [compound 24]	61.8 ± 4.1	45.7 ± 2.6	
c1ccc(C[Se][Se]Cc2ccccc2)cc1 [compound 4]	26.8 ± 1.3	35.4 ± 3.6	
COc1ccc(S(=O)(=O)Nc2ccc([Se][Se]c3ccc(NS(=O)(=O)c4ccc(OC)cc4)cc3)cc2)cc1 [compound 38]	40.3 ± 2.5	27.8 ± 1.6	
O=[N+]([O-])c1ccc(C[Se][Se]Cc2ccc([N+](=O)[O-])cc2)cc1 [compound 6]	28.2 ± 1.1	13.6 ± 0.7	
O=S(=O)(Nc1ccc([Se][Se]c2ccc(NS(=O)(=O)c3ccc(Br)cc3)cc2)cc1)c1ccc(Br)cc1 [compound 33]	49.7 ± 3.2	10.2 ± 0.8	
O=[N+]([O-])c1ccc(S(=O)(=O)Nc2ccc([Se][Se]c3ccc(NS(=O)(=O)c4ccc([N+](=O)[O-])cc4)cc3)cc2)cc1 [compound 39]	11.7 ± 2.7	17.1 ± 1.3	
O=S(=O)(Nc1ccc([Se][Se]c2ccc(NS(=O)(=O)c3ccc4ccccc4c3)cc2)cc1)c1ccc2ccccc2c1 [compound 44]	30.8 ± 2.2	5.6 ± 1.1	
O=S(=O)(Nc1ccc([Se][Se]c2ccc(NS(=O)(=O)c3cccs3)cc2)cc1)c1cccs1 [compound 48]	15.7 ± 1.1	1.8	
Cn1ccnc1S(=O)(=O)Nc1ccc([Se][Se]c2ccc(NS(=O)(=O)c3nccn3C)cc2)cc1 [compound 47]		≤ 10	Selectivity Index Amast. [2]: 15; IC50 [2]: 3 ± 0.4 µM; Selectivity Index Trypomast. [3]: 12; IC50 ([3]; 28 h): 3.8 ± 0.4 µM; CC50 (Mammalian Vero cells): 44.7 ± 3 µM; Selectivity Index Epimast. [1]: 12; IC50 [1, 5]: 3.6 ± 0.3 µM
N#C[Se]Cc1ccccc1 [compound 3]	53.3 ± 2.5		
O=[N+]([O-])c1ccccc1C[Se][Se]Cc1ccccc1[N+](=O)[O-] [compound 16]	18.9 ± 2.4	18.4 ± 2.3	
N#Cc1cccc(C[Se][Se]Cc2cccc(C#N)c2)c1 [compound 22]	29.8 ± 3	39.7 ± 2.6	
Cc1ccc(C[Se]C#N)cc1 [compound 11]		≤ 10	Selectivity Index Amast. [2]: 20; IC50 [2]: 3.1 ± 0.1 µM; Selectivity Index Trypomast. [3]: 14; IC50 [3]: 4.5 ± 0.6 µM; CC50 (Mammalian Vero cells): 61.3 ± 3.7 µM; Selectivity Index Epimast. [1]: 20; IC50 [1, 6]: 3 ± 0.4 µM
CSc1ccc(C[Se]C#N)cc1 [compound 9]	67.3 ± 4.9	11.3 ± 0.7	
N#C[Se]Cc1ccc(C(F)(F)F)cc1 [compound 7]	50.5 ± 3.8	34.1 ± 2.6	
O=S(=O)(Nc1ccc([Se][Se]c2ccc(NS(=O)(=O)c3ccccc3)cc2)cc1)c1ccccc1 [compound 41]	26.5 ± 1.4	6.8 ± 0.7	
c1cnc2c(C[Se][Se]Cc3cccc4cccnc34)cccc2c1 [compound 26]	19.6 ± 1	6.7 ± 0.4	
O=S(=O)(Nc1ccc([Se][Se]c2ccc(NS(=O)(=O)c3cccc4cccnc34)cc2)cc1)c1cccc2cccnc12 [compound 45]	14.3 ± 1.1	1.7 ± 0.3	
N#C[Se]Cc1c2ccccc2cc2ccccc12 [compound 28]	169 ± 9.7	21.4 ± 0.9	
Cc1ccc(C[Se][Se]Cc2ccc(C)cc2)cc1 [compound 12]	4.9 ± 0.7	19.4 ± 1.5	
Brc1ccc(C[Se][Se]Cc2ccc(Br)cc2)cc1 [compound 2]	30.7 ± 2.1	39.3 ± 4.1	
